Where “and” joins values, the source holds several entries; their conditions need not be identical. Equal entries are not always repeated.
Test system: PC-3 multi-cell spheroids, viability
Test: Anticancer human tumor PC-3 cell line growth inhibition [IpAb];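 further: spheroids exposed to compounds for 7 days before readout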;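 on viability, T/C: 100% = DMSO vehicle control wells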
Details: for viability, T/C: stronger effect = lower value; active means viability on the fitted dose curve at most 10% of control; inactive means the rest
Outline: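 Spheroids of 60% malignant cells, 25% HUVEC and 15% MSC were exposed to targeted agents combined with ipatasertib or abemaciclib. Doses started at or near clinical Cmax (10 microM when unknown) and fell in half-log steps.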

[1] = curve of first compound, second compound 0.01 µM
[2] = curve of first compound, second compound 0.0316 µM
[3] = curve of first compound, second compound 0.1 µM
[4] = curve of first compound, second compound 0.316 µM
[5] = curve of first compound, second compound 1 µM
[6] = second compound 0.01 µM, first compound 0.0316 µM
[7] = second compound 0.01 µM, first compound 0.1 µM
[8] = second compound 0.01 µM, first compound 0.316 µM
[9] = second compound 0.01 µM, first compound 1 µM
[10] = second compound 0.01 µM, first compound 3.16 µM
[11] = second compound 0.01 µM, first compound 10 µM
[12] = second compound 0.0316 µM, first compound 0.0316 µM
[13] = second compound 0.0316 µM, first compound 0.1 µM
[14] = second compound 0.0316 µM, first compound 0.316 µM
[15] = second compound 0.0316 µM, first compound 1 µM
[16] = second compound 0.0316 µM, first compound 3.16 µM
[17] = second compound 0.0316 µM, first compound 10 µM
[18] = second compound 0.1 µM, first compound 0.0316 µM
[19] = second compound 0.1 µM, first compound 0.1 µM
[20] = second compound 0.1 µM, first compound 0.316 µM
[21] = second compound 0.1 µM, first compound 1 µM
[22] = second compound 0.1 µM, first compound 3.16 µM
[23] = second compound 0.1 µM, first compound 10 µM
[24] = second compound 0.316 µM, first compound 0.0316 µM
[25] = second compound 0.316 µM, first compound 0.1 µM
[26] = second compound 0.316 µM, first compound 0.316 µM
[27] = second compound 0.316 µM, first compound 1 µM
[28] = second compound 0.316 µM, first compound 3.16 µM
[29] = second compound 0.316 µM, first compound 10 µM
[30] = second compound 1 µM, first compound 0.0316 µM
[31] = second compound 1 µM, first compound 0.1 µM
[32] = second compound 1 µM, first compound 0.316 µM
[33] = second compound 1 µM, first compound 1 µM
[34] = second compound 1 µM, first compound 3.16 µM
[35] = second compound 1 µM, first compound 10 µM

C=CCn1c(=O)c2cnc(Nc3ccc(N4CCN(C)CC4)cc3)nc2n1-c1cccc(C(C)(C)O)n1 + CCN1CCN(Cc2ccc(Nc3ncc(F)c(-c4cc(F)c5nc(C)n(C(C)C)c5c4)n3)nc2)CC1
515 nM: IC50 [1]
290 nM: IC50 [2] | IC50 [5]
inactive: viability, T/C [6] 66.6% | viability, T/C [7] 76.6% | viability, T/C [8] 53.7% | viability, T/C [9] 42.5% | viability, T/C [10] 22% | viability, T/C [11] 27.1% | viability, T/C [12] 67.4% | viability, T/C [13] 54.7% | viability, T/C [14] 51.9% | viability, T/C [15] 39.6% | viability, T/C [16] 24% | viability, T/C [17] 26.4% | viability, T/C [18] 59.9% | viability, T/C [19] 51.2% | viability, T/C [20] 52.6% | viability, T/C [21] 41.4% | viability, T/C [22] 24% | viability, T/C [23] 24.5% | viability, T/C [24] 59.6% | viability, T/C [25] 56.3% | viability, T/C [26] 52.2% | viability, T/C [27] 43.2% | viability, T/C [28] 26.3% | viability, T/C [29] 24.9% | viability, T/C [30] 55.7% | viability, T/C [31] 53.3% | viability, T/C [32] 51.1% | viability, T/C [33] 38.7% | viability, T/C [34] 31.6% | viability, T/C [35] 25.1%
450 nM: IC50 [4]
446 nM: IC50 [3]

CC(C)n1nc(-c2ccc3oc(N)nc3c2)c2c(N)ncnc21 + CCN1CCN(Cc2ccc(Nc3ncc(F)c(-c4cc(F)c5nc(C)n(C(C)C)c5c4)n3)nc2)CC1
1.81 nM: IC50 [4]
1.93 nM: IC50 [3]
active: viability, T/C [7] 10% | viability, T/C [19] 9.73%
inactive: viability, T/C (second compound 0.01 µM, first compound 0.000316 µM) 81.9% | viability, T/C (second compound 0.01 µM, first compound 0.001 µM) 56.2% | viability, T/C (second compound 0.01 µM, first compound 0.00316 µM) 48.6% | viability, T/C (second compound 0.01 µM, first compound 0.01 µM) 25.9% | viability, T/C [6] 11% | viability, T/C (second compound 0.0316 µM, first compound 0.000316 µM) 55.2% | viability, T/C (second compound 0.0316 µM, first compound 0.001 µM) 55.7% | viability, T/C (second compound 0.0316 µM, first compound 0.00316 µM) 47% | viability, T/C (second compound 0.0316 µM, first compound 0.01 µM) 18.6% | viability, T/C [12] 11.7% | viability, T/C [13] 9.52% | viability, T/C (second compound 0.1 µM, first compound 0.000316 µM) 59.1% | viability, T/C (second compound 0.1 µM, first compound 0.001 µM) 54.8% | viability, T/C (second compound 0.1 µM, first compound 0.00316 µM) 45.7% | viability, T/C (second compound 0.1 µM, first compound 0.01 µM) 20% | viability, T/C [18] 11.2% | viability, T/C (second compound 0.316 µM, first compound 0.000316 µM) 65.3% | viability, T/C (second compound 0.316 µM, first compound 0.001 µM) 61.8% | viability, T/C (second compound 0.316 µM, first compound 0.00316 µM) 39.2% | viability, T/C (second compound 0.316 µM, first compound 0.01 µM) 20.1% | viability, T/C [24] 13.7% | viability, T/C [25] 10.8% | viability, T/C (second compound 1 µM, first compound 0.000316 µM) 55.4% | viability, T/C (second compound 1 µM, first compound 0.001 µM) 54.3% | viability, T/C (second compound 1 µM, first compound 0.00316 µM) 35.3% | viability, T/C (second compound 1 µM, first compound 0.01 µM) 24.1% | viability, T/C [30] 15.7% | viability, T/C [31] 13.8%
2.07 nM: IC50 [2]
1.14 nM: IC50 [5]
1.99 nM: IC50 [1]

CC(C)(C)c1cnc(CSc2cnc(NC(=O)C3CCNCC3)s2)o1 + CC(C)NCC(C(=O)N1CCN(c2ncnc3c2C(C)CC3O)CC1)c1ccc(Cl)cc1
165 nM: IC50 [3]
inactive: viability, T/C (second compound 0.1 µM, first compound 0.00949 µM) 80.2% | viability, T/C (second compound 0.1 µM, first compound 0.03 µM) 98.4% | viability, T/C (second compound 0.1 µM, first compound 0.0949 µM) 95.3% | viability, T/C (second compound 0.316 µM, first compound 0.00949 µM) 49.9% | viability, T/C (second compound 0.316 µM, first compound 0.03 µM) 46.9% | viability, T/C (second compound 0.316 µM, first compound 0.0949 µM) 64% | viability, T/C (second compound 1 µM, first compound 0.00949 µM) 31.3% | viability, T/C (second compound 1 µM, first compound 0.03 µM) 34.9% | viability, T/C (second compound 1 µM, first compound 0.0949 µM) 36.7% | viability, T/C (second compound 1 µM, first compound 0.3 µM) 3.39% | viability, T/C (second compound 3.16 µM, first compound 0.00949 µM) 17.2% | viability, T/C (second compound 3.16 µM, first compound 0.03 µM) 19.3% | viability, T/C (second compound 3.16 µM, first compound 0.0949 µM) 19.5% | viability, T/C (second compound 10 µM, first compound 0.00949 µM) 14.8% | viability, T/C (second compound 10 µM, first compound 0.03 µM) 16.8%
< 9.49 nM: IC50 [5] | IC50 (curve of first compound, second compound 3.16 µM) | IC50 (curve of first compound, second compound 10 µM)
103 nM: IC50 [4]
active: viability, T/C (second compound 0.1 µM, first compound 0.3 µM) 4.14% | viability, T/C (second compound 0.1 µM, first compound 0.949 µM) 6.3% | viability, T/C (second compound 0.1 µM, first compound 3 µM) 6.84% | viability, T/C (second compound 0.316 µM, first compound 0.3 µM) 3.47% | viability, T/C (second compound 0.316 µM, first compound 0.949 µM) 5.07% | viability, T/C (second compound 0.316 µM, first compound 3 µM) 5.91% | viability, T/C (second compound 1 µM, first compound 0.949 µM) 4.05% | viability, T/C (second compound 1 µM, first compound 3 µM) 5.41% | viability, T/C (second compound 3.16 µM, first compound 0.3 µM) 3% | viability, T/C (second compound 3.16 µM, first compound 0.949 µM) 3.25% | viability, T/C (second compound 3.16 µM, first compound 3 µM) 4.47% | viability, T/C (second compound 10 µM, first compound 0.0949 µM) 10.1% | viability, T/C (second compound 10 µM, first compound 0.3 µM) 2.76% | viability, T/C (second compound 10 µM, first compound 0.949 µM) 3.15% | viability, T/C (second compound 10 µM, first compound 3 µM) 3.94%

CC(C)(C)c1cnc(CSc2cnc(NC(=O)C3CCNCC3)s2)o1
197 nM and 189 nM: IC50 (curve of compound)
active: viability, T/C (compound 0.949 µM) 6.38% and 6.26% | viability, T/C (compound 3 µM) 6.95% and 7.36%
inactive: viability, T/C (compound 0.00949 µM) 100% and 112% | viability, T/C (compound 0.03 µM) 119% and 114% | viability, T/C (compound 0.0949 µM) 108% and 120%
16.7% and 4.98%: viability, T/C (compound 0.3 µM)

CC(C)NCC(C(=O)N1CCN(c2ncnc3c2C(C)CC3O)CC1)c1ccc(Cl)cc1 (stereo not given)
249 nM [middle of 13 runs]: IC50 (compound alone, run of 44348)
inactive: viability, T/C (compound 0.1 µM) 72.9% [middle of 13 runs] | viability, T/C (compound 0.316 µM) 43.7% [middle of 13 runs] | viability, T/C (compound 1 µM) 24.7% [middle of 12 runs] | viability, T/C (compound 3.16 µM) 14.9% [middle of 12 runs] | viability, T/C (compound 10 µM) 13.3% [middle of 13 runs]

Cn1nccc1Nc1nccc(-c2ccn(C(CO)c3ccc(Cl)c(F)c3)c(=O)c2)n1 (stereo not given) + CCN1CCN(Cc2ccc(Nc3ncc(F)c(-c4cc(F)c5nc(C)n(C(C)C)c5c4)n3)nc2)CC1
> 10000 nM: IC50 [1] | IC50 [2] | IC50 [3] | IC50 [4] | IC50 [5]
inactive: viability, T/C [6] 87.1% | viability, T/C [7] 78.3% | viability, T/C [8] 97.1% | viability, T/C [9] 114% | viability, T/C [10] 127% | viability, T/C [11] 93.8% | viability, T/C [12] 59.1% | viability, T/C [13] 58% | viability, T/C [14] 66.1% | viability, T/C [15] 76.6% | viability, T/C [16] 115% | viability, T/C [17] 39.8% | viability, T/C [18] 54.4% | viability, T/C [19] 52.1% | viability, T/C [20] 55.6% | viability, T/C [21] 64.8% | viability, T/C [22] 87.7% | viability, T/C [23] 47.2% | viability, T/C [24] 52.4% | viability, T/C [25] 68.5% | viability, T/C [26] 64.7% | viability, T/C [27] 65.4% | viability, T/C [28] 72.9% | viability, T/C [29] 54.3% | viability, T/C [30] 62.4% | viability, T/C [31] 57.1% | viability, T/C [32] 61.2% | viability, T/C [33] 63.2% | viability, T/C [34] 92% | viability, T/C [35] 51.5%

CC(=O)c1c(C)c2cnc(Nc3ccc(N4CCNCC4)cn3)nc2n(C2CCCC2)c1=O
> 300 nM: IC50 (curve of compound)
inactive: viability, T/C (compound 0.000949 µM) 95.8% and 105% | viability, T/C (compound 0.003 µM) 96.3% and 95.7% | viability, T/C (compound 0.00949 µM) 88.9% and 83.5% | viability, T/C (compound 0.03 µM) 63.2% and 72.3% | viability, T/C (compound 0.0949 µM) 56.1% and 64.3% | viability, T/C (compound 0.3 µM) 62.9% and 61.2%
